The record followed here is patent US11077100B2, “Tetrahydroquinoline derivatives as P2X7 receptor antagonists” (RaQualia Pharma Inc., priority 2017, dated 2021).

pIC50: −log10 of the molar value. A value given as a limit tells only on which side of the number the result lay.

One assay addresses rat P2X7 (Rattus norvegicus (Rat), UniProt Q64663). Briefly: Rat P2X7 functional assay (Ca2+ influx, Fluo-4, FDSS). The settings on record: HEK293 cells stably expressing rat P2X7; BzATP final 10 microM; 7-point dose-response; read-out: Antagonistic activities with respect to the rat P2X7 receptor (IC50). Type of assay: cell-based. How it is done: Rat P2X7 Functional Assay
The functional activity of compounds was determined by measuring changes in intracellular calcium concentration using a Ca^2+-sensitive fluorescent dye, Fluo-4 (Molecular Probes). The changes in fluorescent signal were monitored by the cell imaging technology by Hamamatsu Photonics's Functional Drug Screening System (FDSS). Increases in intracellular Ca^2+ concentration were readily detected upon activation with BzATP.
HEK293 cells stably expressing rat P2X7 (GenBank accession number NM_019256) were grown in Corning CellBIND cell culture flasks, in a 5% CO2 humidified incubator to about 80% confluence. Media composition consisted of Dulbecco's Modified Eagle Medium (high glucose), 10% fetal bovine serum ([…]), 100 units/[…] Penicillin, 100 microg/mL Streptomycin and 250 microg/mL Geneticine.
1. […] Plate-out HEK293-rat P2X7 cells (40 microL medium containing 5,000 cells per well) into poly-D-lysine coated 384-well plates (BD Falcon) at 24 h prior to assay.
2. Incubate at 37° C. in 5% CO2.
3. Incubate the plate at 37° C. in 5% CO2 for 1 h.
5. Test compounds were prepared at 100× the test concentration in DMSO by serial dilution with Biomek-FX liquid handling instrument. 33× diluted compound solutions in assay buffer were prepared in intermediate compound plate with Biomek-NX liquid handling instrument. A further 3× dilution occurred in below steps 6 and 7.
6. Add 20 microL of 33× diluted compound solutions into each well and leave the plate for 10 min under the dark at room temperature.
7. Measure activity by FDSS as follows: • Set the assay plate on the stacker of FDSS. • Start the detection of fluorescence intensity at 540 nm by 480 nm exicitation. • After 30 seconds, add 20 microL of assay buffer containing 30 microM BzATP (final 10 microM).
IC50 values for compounds of the present invention were determined from 7-point dose-response studies. Curves were generated using the average of duplicate wells for each data point. Finally, the IC50 values are calculated with the best-fit dose curve determined by XLfit (ID Business Solutions Ltd.).

A further assay has as its target human P2X7 (Homo sapiens (Human), UniProt Q99572). Description: Human P2X7 functional assay (Ca2+ influx, Fluo-4, FDSS). In kind it is cell-based. The settings on record: antagonistic activity with respect to the human P2X7 receptor; BzATP final concentration 80 microM. Put shortly: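 Ca2+ influx was triggered with BzATP (80 μM final) after a 10-min room-temperature compound preincubation and monitored with Fluo-4 (ex 480/em 540 nm) on FDSS. The cells were HEK293 stably carrying FLAG-tagged human P2X7. Duplicate-averaged 7-point dose-responses gave IC50s.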

Chain of human P2X7 (Q99572 whole entry): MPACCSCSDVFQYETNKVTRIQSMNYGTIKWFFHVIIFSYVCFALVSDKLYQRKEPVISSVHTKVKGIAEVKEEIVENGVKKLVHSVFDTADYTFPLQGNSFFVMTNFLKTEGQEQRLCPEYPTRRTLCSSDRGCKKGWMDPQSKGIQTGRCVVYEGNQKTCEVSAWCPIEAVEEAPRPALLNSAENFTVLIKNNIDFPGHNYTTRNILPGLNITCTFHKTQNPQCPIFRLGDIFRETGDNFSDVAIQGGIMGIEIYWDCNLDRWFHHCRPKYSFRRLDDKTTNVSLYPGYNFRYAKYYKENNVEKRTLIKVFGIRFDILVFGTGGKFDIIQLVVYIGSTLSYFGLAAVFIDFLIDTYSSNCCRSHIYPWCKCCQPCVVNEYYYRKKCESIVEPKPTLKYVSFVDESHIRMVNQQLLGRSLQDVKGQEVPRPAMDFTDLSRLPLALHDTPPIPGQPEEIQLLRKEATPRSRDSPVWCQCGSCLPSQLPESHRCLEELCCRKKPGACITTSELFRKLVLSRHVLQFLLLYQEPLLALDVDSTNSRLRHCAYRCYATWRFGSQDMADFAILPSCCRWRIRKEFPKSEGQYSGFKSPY
Chain of rat P2X7 (Q64663 whole entry): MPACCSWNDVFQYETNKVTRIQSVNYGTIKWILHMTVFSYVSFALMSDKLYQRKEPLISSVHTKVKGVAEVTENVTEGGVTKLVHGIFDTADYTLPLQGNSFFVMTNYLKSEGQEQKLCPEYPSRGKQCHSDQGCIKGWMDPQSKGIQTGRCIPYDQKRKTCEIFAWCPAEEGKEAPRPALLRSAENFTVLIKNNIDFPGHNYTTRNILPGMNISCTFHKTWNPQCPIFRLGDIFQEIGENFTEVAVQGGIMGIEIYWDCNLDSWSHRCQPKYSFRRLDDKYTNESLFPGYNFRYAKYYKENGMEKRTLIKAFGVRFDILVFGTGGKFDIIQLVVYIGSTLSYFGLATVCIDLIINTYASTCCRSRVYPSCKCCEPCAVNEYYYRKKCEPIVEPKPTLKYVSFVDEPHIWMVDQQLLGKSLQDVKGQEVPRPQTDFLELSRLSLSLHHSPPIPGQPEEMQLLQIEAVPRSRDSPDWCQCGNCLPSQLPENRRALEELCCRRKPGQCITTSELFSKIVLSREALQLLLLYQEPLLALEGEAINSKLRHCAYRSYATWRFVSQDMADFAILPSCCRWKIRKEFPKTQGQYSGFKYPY

Consider `O=C(NCc1c(Cl)cc(Cl)cc1CO)C1CCC(O)c2ncccc21` (centres unmarked) [Example 9, N-(2,4-dichloro-6-(hydroxy-methyl)benzyl)-8-hydroxy-5,6,7,8-tetrahydroquinoline-carboxamide], for which the pIC50 at rat P2X7 was greater than 6.00.
On to `O=C(NCc1ccc(C(F)(F)F)cc1Cl)[C@]1(F)CC[C@H](O)c2ncccc21` [Example 187, (5S,8S)-N-(2-chloro-4-(trifluoromethyl)benzyl)-5-fluoro-8-hydroxy-5,6,7,8-tetrahydroquinoline-5-carboxamide], for which, on rat P2X7, the pIC50 is greater than 6.00.
For the compound `Cc1cc(Cl)cc(Cl)c1CNC(=O)[C@@]1(F)CC[C@@H](O)c2ncccc21` [Example 126, (5R,8R)-N-(2,4-dichloro-6-methylbenzyl)-5-fluoro-8-hydroxy-5,6,7,8-tetrahydroquinoline-5-carboxamide], on rat P2X7, the pIC50 is greater than 6.00.
The same measure, in the same setting: with `Cc1cc(Cl)cc(Cl)c1CNC(=O)[C@]1(F)CC[C@H](O)c2ncccc21` [Example 127, (5S,8S)-N-(2,4-dichloro-6-methylbenzyl)-fluoro-8-hydroxy-5,6,7,8-tetrahydroquinoline-5-carboxamide] the figure was greater than 6.00; with `O=C(NCc1c(F)cc(Cl)cc1Cl)[C@]1(F)CC[C@H](O)c2ncccc21` [Example 152, (5S,8S)-N-(2,4-dichloro-6-fluorobenzyl)-5-fluoro-8-hydroxy-5,6,7,8-tetrahydroquinoline-5-carboxamide], greater than 6.00; with `C[C@]1(O)CC[C@@](F)(C(=O)NC2CC2c2ccc(Cl)cc2Cl)c2cccnc21` (stereo partly drawn) [Example 273, (5S,8S)-N-((trans)-2-(2,4-dichlorophenyl)cyclopropyl)-5-fluoro-8-hydroxy-8-methyl-5,6,7,8-tetrahydroquinoline-5-carboxamide], greater than 6.00.
In the case of `C[C@]1(O)CC[C@@](F)(C(=O)NCc2ccc(Cl)c(F)c2F)c2cccnc21` [Example 267, (5S,8S)-N-(4-chloro-2,3-difluorobenzyl)-5-fluoro-8-hydroxy-8-methyl-5,6,7,8-tetrahydroquinoline-5-carboxamide], at rat P2X7, the pIC50 is greater than 6.00.
Same read-out and setting: for `O=C(NCc1ccc(F)cc1C(F)(F)F)[C@]1(F)CC[C@H](O)c2ncccc21` [Example 144, (5S,8S)-5-fluoro-N-(4-fluoro-2-(trifluoromethyl)benzyl)-8-hydroxy-5,6,7,8-tetrahydroquinoline-5-carboxamide] the value was greater than 6.00; for `CO[C@H]1CC[C@@](F)(C(=O)NCc2c(F)cc(Cl)cc2Cl)c2cccnc21` [Example 335, (5S,8S)-N-(2,4-dichloro-6-fluorobenzyl)-5-fluoro-8-methoxy-5,6,7,8-tetrahydroquinoline-5-carboxamide], greater than 6.00.
Same read-out and setting: for `O=C(NCc1cccc(C(F)(F)F)c1F)[C@]1(F)CC[C@H](O)c2ncccc21` [Example 175, (5S,8S)-5-fluoro-N-(2-fluoro-3-(trifluoromethyl)benzyl)-8-hydroxy-5,6,7,8-tetrahydroquinoline-5-carboxamide] the value was greater than 6.00.
On human P2X7, `O=C(O)CC1CCC(C(=O)NCc2cccc(C(F)(F)F)c2Cl)c2cccnc21` (centres unmarked) [Example 31, 2-(5-((2-chloro-3-(trifluoro-methyl)benzyl)carbamoyl)-5,6,7,8-tetrahydroquinolin-8-yl)acetic acid] gave a pIC50 of 7.00 to 7.30.
At human P2X7, `O=C(NCc1ccc(Cl)cc1Cl)[C@H]1CC[C@H](O)c2ncccc21` [Example 65, (5S,8S)-N-(2,4-dichloro-benzyl)-8-hydroxy-5,6,7,8-tetrahydroquinoline-5-carboxamide] showed a pIC50 of 6.00 to 6.52.
`CC(C)(C)CCNC(=O)[C@]1(F)CC[C@H](O)c2ncccc21` [Example 227, (5S,8S)-N-(3,3-dimethylbutyl)-5-fluoro-8-hydroxy-5,6,7,8-tetrahydroquinoline-5-carboxamide] gave a pIC50 on human P2X7 of 5.52 to 6.00.
`Cc1ccc(Cl)c(CNC(=O)[C@]2(F)CC[C@H](O)c3ncccc32)c1F` [Example 216, (5S,8S)-N-(6-chloro-2-fluoro-3-methylbenzyl)-5-fluoro-8-hydroxy-5,6,7,8-tetrahydroquinoline-5-carboxamide] showed a pIC50 at human P2X7 of 6.52 to 7.00.
The same measure, in the same setting: for `COc1cccc(Cl)c1CNC(=O)[C@]1(F)CC[C@H](O)c2ncccc21` [Example 198, (5S,8S)-N-(2-chloro-6-methoxybenzyl)-5-fluoro-8-hydroxy-5,6,7,8-tetrahydroquinoline-5-carboxamide] the value was greater than 7.30; for `O=C(N[C@H]1CCc2ccccc21)[C@]1(F)CC[C@H](O)c2ncccc21` [Example 226, (5S,8S)-N-((S)-2,3-dihydro-1H-inden-1-yl)-5-fluoro-8-hydroxy-5,6,7,8-tetrahydroquinoline-5-carboxamide], 5.52 to 6.00.
On the same count and under the same terms, for `Cc1cccc(Cl)c1CNC(=O)[C@@]1(F)CC[C@@H](O)c2ncccc21` [Example 160, (5R,8R)-N-(2-chloro-6-methylbenzyl)-5-fluoro-8-hydroxy-5,6,7,8-tetrahydroquinoline-5-carboxamide] the value was 6.52 to 7.00.
At human P2X7, `O=C1CC[C@@](F)(C(=O)NCc2ncc(Cl)cc2Cl)c2cccnc21` [Example 255, (S)-N-((3,5-dichloro-pyridin-2-yl)methyl)-5-fluoro-8-oxo-5,6,7,8-tetrahydroquinoline-5-carboxamide] gave a pIC50 of 6.52 to 7.00.
Same read-out and setting: for `O=C(NCc1cc(Cl)cc(Cl)c1)[C@]1(F)CC[C@H](O)c2ncccc21` [Example 212, (5S,8S)-N-(3,5-dichlorobenzyl)-5-fluoro-8-hydroxy-5,6,7,8-tetrahydroquinoline-5-carboxamide] the value was 6.52 to 7.00; for `O=C(NCc1ccc(F)c(F)c1)[C@]1(F)CC[C@H](O)c2ncccc21` [Example 202, (5S,8S)-N-(3,4-difluorobenzyl)-5-fluoro-8-hydroxy-5,6,7,8-tetrahydroquinoline-5-carboxamide], 7.00 to 7.30; for `O=C(NCc1ccc(Cl)cc1Cl)[C@@]1(F)CC[C@@H](OCCO)c2ncccc21` [Example 348, (5R,8R)-N-(2,4-dtchlorobenzyl)-5-fluoro-8-(2-hydroxyethoxy)-5.6,7,8-tetrahydroquinoline-5-carboxamide], 6.52 to 7.00.
`O=C(NCc1ccc(F)c(F)c1F)[C@H]1CC[C@@H](O)c2ncccc21` [Example 94, (5S,8R)-8-hydroxy-N-(2,3,4-trifluorobenzyl)-5,6,7,8-tetrahydroquinoline-5-carboxamide] showed a negative-log IC50 (pIC50) against human P2X7 of 5.52 to 6.00.
Regarding `O=C(NCc1c(F)cc(Cl)cc1Cl)[C@@]1(F)CC[C@H](O)c2ncccc21` [Example 116, (5R,8S)-N-(2,4-dichloro-6-fluorobenzyl)-5-fluoro-8-hydroxy-5,6,7,8-tetrahydroquinoline-5-carboxamide], the pIC50 on human P2X7 is 6.00 to 6.52.
The same measure, in the same setting: for `O=C(NCc1ccc(Cl)cc1Cl)[C@@]1(F)CC[C@H](O)c2ncccc21` [Example 105, (5R,8S)-N-(2,4-dichlorobenzyl)-5-fluoro-8-hydroxy-5,6,7,8-tetrahydroquinoline-5-carboxamide] the value was 6.00 to 6.52; for `O=C(NCCOc1ccccc1)[C@]1(F)CC[C@H](O)c2ncccc21` [Example 228, (5S,8S)-5-fluoro-8-hydroxy-N-(2-phenoxyethyl)-5,6,7,8-tetrahydroquinoline-5-carboxamide], 5.52 to 6.00; for `O=C(NCc1ccc(Cl)cc1F)[C@H]1CC[C@@H](O)c2ncccc21` [Example 96, (5S,8R)-N-(4-chloro-2-fluorobenzyl)-8-hydroxy-5,6,7,8-tetrahydroquinoline-5-carboxamide], 5.52 to 6.00.
Same read-out and setting: with `O=C(NCc1c(F)cc(Cl)cc1Cl)[C@H]1CC[C@H](O)c2ncccc21` [Example 69, (5S,8S)-N-(2,4-dichloro-6-fluorobenzyl)-8-hy-droxy-5,6,7,8-tetrahydro-quinoline-5-carboxamide] the figure was 6.00 to 6.52; with `O=C1CO[C@@]2(CC[C@](F)(C(=O)NCc3ccc(Cl)cc3Cl)c3cccnc32)CN1` [Example 293, (2S,5′R)-N-(2,4-dichlorobenzyl)-5′-fluoro-5-oxo-6′,7′-dihydro-5′H-spiro [morpholine-2,8′-quinoline]-5′-carboxamide], 5.52 to 6.00; with `Cc1cc(Cl)cc(Cl)c1CNC(=O)[C@@]1(F)CC[C@H](O)c2ncccc21` [Example 99, (5R,8S)-N-(2,4-dichloro-6-methylbenzyl)-5-fluoro-8-hydroxy-5,6,7,8-tetrahydroquinoline-5-carboxamide], greater than 7.30.

As a reminder, the pIC50 is the IC50 on a negative log10 scale, so that one unit is a factor of ten.
